Laboratory results reported in PubChem BioAssay AID1919000 (Molecular Pharmacology Branch, DTP, NCI, 2023).

System: 653999-131-R-J2-PDC complex spheroids, growth % test/control
Experiment: Anticancer human tumor 653999-131-R-J2-PDC patient-derived lung adenocarcinoma cell line growth inhibition [AhR]
Conditions: for IC50: curve of first compound; for viability, T/C: stronger effect = lower value
How it was run: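 Spheroids combined tumor cells with HUVEC endothelial cells and human MSCs as stroma. AhR antagonists were paired with standard or investigational drugs, each dosed in half-log steps down from near clinical Cmax, or from 10 microM where Cmax was unknown.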

[1] = second compound 0.1 µM, first compound 0.0316 µM
[2] = second compound 0.1 µM, first compound 0.1 µM
[3] = second compound 0.316 µM, first compound 0.0316 µM
[4] = second compound 0.316 µM, first compound 0.1 µM
[5] = second compound 1 µM, first compound 0.0316 µM
[6] = second compound 1 µM, first compound 0.1 µM
[7] = second compound 3.16 µM, first compound 0.0316 µM
[8] = second compound 3.16 µM, first compound 0.1 µM
[9] = second compound 10 µM, first compound 0.0316 µM
[10] = second compound 10 µM, first compound 0.1 µM
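Further: spheroids exposed to agents for seven days.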
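Wherever viability, T/C is given: 100% = DMSO vehicle control viability.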

CC[C@@]1(O)C(=O)OCc2c1cc1n(c2=O)Cc2cc3c(CN(C)C)c(O)ccc3nc2-1 + Cc1cncc(-c2nc(NCCc3c[nH]c4ccccc34)c3ncn(C(C)C)c3n2)c1
IC50 (second compound 0.1 µM): 34.2 nM | IC50 (second compound 0.316 µM): 26.8 nM | IC50 (second compound 1 µM): 30.1 nM | IC50 (second compound 3.16 µM): 47.3 nM | IC50 (second compound 10 µM): 4.63 nM | viability, T/C (second compound 0.1 µM, first compound 0.000316 µM): 100% | viability, T/C (second compound 0.1 µM, first compound 0.001 µM): 86.7% | viability, T/C (second compound 0.1 µM, first compound 0.00316 µM): 88.2% | viability, T/C (second compound 0.1 µM, first compound 0.01 µM): 70% | viability, T/C [1]: 49.5% | viability, T/C [2]: 40.4% | viability, T/C (second compound 0.316 µM, first compound 0.000316 µM): 95.4% | viability, T/C (second compound 0.316 µM, first compound 0.001 µM): 93.2% | viability, T/C (second compound 0.316 µM, first compound 0.00316 µM): 83% | viability, T/C (second compound 0.316 µM, first compound 0.01 µM): 72.8% | viability, T/C [3]: 44.6% | viability, T/C [4]: 33.7% | viability, T/C (second compound 1 µM, first compound 0.000316 µM): 106% | viability, T/C (second compound 1 µM, first compound 0.001 µM): 117% | viability, T/C (second compound 1 µM, first compound 0.00316 µM): 95% | viability, T/C (second compound 1 µM, first compound 0.01 µM): 72.3% | viability, T/C [5]: 51.4% | viability, T/C [6]: 36.3% | viability, T/C (second compound 3.16 µM, first compound 0.000316 µM): 112% | viability, T/C (second compound 3.16 µM, first compound 0.001 µM): 106% | viability, T/C (second compound 3.16 µM, first compound 0.00316 µM): 91.5% | viability, T/C (second compound 3.16 µM, first compound 0.01 µM): 77.4% | viability, T/C [7]: 57.5% | viability, T/C [8]: 36.2% | viability, T/C (second compound 10 µM, first compound 0.000316 µM): 55.2% | viability, T/C (second compound 10 µM, first compound 0.001 µM): 64.4% | viability, T/C (second compound 10 µM, first compound 0.00316 µM): 54.6% | viability, T/C (second compound 10 µM, first compound 0.01 µM): 39.3% | viability, T/C [9]: 34.1% | viability, T/C [10]: 28.5%

COc1cccc2c1C(=O)c1c(O)c3c(c(O)c1C2=O)CC(O)(C(=O)CO)CC3OC1CC(N)C(O)C(C)O1 (stereo not given) + Cc1cncc(-c2nc(NCCc3c[nH]c4ccccc34)c3ncn(C(C)C)c3n2)c1
IC50 (second compound 0.1 µM): < 31.6 nM | IC50 (second compound 0.316 µM): < 31.6 nM | IC50 (second compound 1 µM): < 31.6 nM | IC50 (second compound 3.16 µM): 112 nM | IC50 (second compound 10 µM): < 31.6 nM | viability, T/C [1]: 50.2% | viability, T/C [2]: 38.3% | viability, T/C (second compound 0.1 µM, first compound 0.316 µM): 26.9% | viability, T/C (second compound 0.1 µM, first compound 1 µM): 7.22% | viability, T/C (second compound 0.1 µM, first compound 3.16 µM): 3.85% | viability, T/C (second compound 0.1 µM, first compound 10 µM): 14% | viability, T/C [3]: 50.4% | viability, T/C [4]: 37.9% | viability, T/C (second compound 0.316 µM, first compound 0.316 µM): 27.2% | viability, T/C (second compound 0.316 µM, first compound 1 µM): 6.87% | viability, T/C (second compound 0.316 µM, first compound 3.16 µM): 3.35% | viability, T/C (second compound 0.316 µM, first compound 10 µM): 12.9% | viability, T/C [5]: 51.4% | viability, T/C [6]: 44.9% | viability, T/C (second compound 1 µM, first compound 0.316 µM): 27.6% | viability, T/C (second compound 1 µM, first compound 1 µM): 6.09% | viability, T/C (second compound 1 µM, first compound 3.16 µM): 3.45% | viability, T/C (second compound 1 µM, first compound 10 µM): 15.4% | viability, T/C [7]: 56.1% | viability, T/C [8]: 50% | viability, T/C (second compound 3.16 µM, first compound 0.316 µM): 28.9% | viability, T/C (second compound 3.16 µM, first compound 1 µM): 4.87% | viability, T/C (second compound 3.16 µM, first compound 3.16 µM): 4.59% | viability, T/C (second compound 3.16 µM, first compound 10 µM): 12.2% | viability, T/C [9]: 40% | viability, T/C [10]: 35.5% | viability, T/C (second compound 10 µM, first compound 0.316 µM): 21.5% | viability, T/C (second compound 10 µM, first compound 1 µM): 2.46% | viability, T/C (second compound 10 µM, first compound 3.16 µM): 5.69% | viability, T/C (second compound 10 µM, first compound 10 µM): 7.61%

CCN(c1cc(-c2ccc(CN3CCOCC3)cc2)cc(C(=O)NCc2c(C)cc(C)[nH]c2=O)c1C)C1CCOCC1 + Cc1ccccc1N=Nc1ccc(NC(=O)c2ccnn2C)c(C)c1
IC50 (second compound 0.1 µM): > 3000 nM | IC50 (second compound 0.316 µM): > 3000 nM | IC50 (second compound 1 µM): > 3000 nM | IC50 (second compound 3.16 µM): > 3000 nM | IC50 (second compound 10 µM): > 3000 nM | viability, T/C (second compound 0.1 µM, first compound 0.00949 µM): 92.9% | viability, T/C (second compound 0.1 µM, first compound 0.03 µM): 102% | viability, T/C (second compound 0.1 µM, first compound 0.0949 µM): 97.9% | viability, T/C (second compound 0.1 µM, first compound 0.3 µM): 103% | viability, T/C (second compound 0.1 µM, first compound 0.949 µM): 97.8% | viability, T/C (second compound 0.1 µM, first compound 3 µM): 92.7% | viability, T/C (second compound 0.316 µM, first compound 0.00949 µM): 93.2% | viability, T/C (second compound 0.316 µM, first compound 0.03 µM): 95.6% | viability, T/C (second compound 0.316 µM, first compound 0.0949 µM): 95.5% | viability, T/C (second compound 0.316 µM, first compound 0.3 µM): 95.3% | viability, T/C (second compound 0.316 µM, first compound 0.949 µM): 93.3% | viability, T/C (second compound 0.316 µM, first compound 3 µM): 92.5% | viability, T/C (second compound 1 µM, first compound 0.00949 µM): 91.6% | viability, T/C (second compound 1 µM, first compound 0.03 µM): 95.2% | viability, T/C (second compound 1 µM, first compound 0.0949 µM): 89% | viability, T/C (second compound 1 µM, first compound 0.3 µM): 91.8% | viability, T/C (second compound 1 µM, first compound 0.949 µM): 88.3% | viability, T/C (second compound 1 µM, first compound 3 µM): 93% | viability, T/C (second compound 3.16 µM, first compound 0.00949 µM): 102% | viability, T/C (second compound 3.16 µM, first compound 0.03 µM): 96.1% | viability, T/C (second compound 3.16 µM, first compound 0.0949 µM): 92.8% | viability, T/C (second compound 3.16 µM, first compound 0.3 µM): 89.5% | viability, T/C (second compound 3.16 µM, first compound 0.949 µM): 86.3% | viability, T/C (second compound 3.16 µM, first compound 3 µM): 84% | viability, T/C (second compound 10 µM, first compound 0.00949 µM): 82.1% | viability, T/C (second compound 10 µM, first compound 0.03 µM): 80.8% | viability, T/C (second compound 10 µM, first compound 0.0949 µM): 81.6% | viability, T/C (second compound 10 µM, first compound 0.3 µM): 86.1% | viability, T/C (second compound 10 µM, first compound 0.949 µM): 78.8% | viability, T/C (second compound 10 µM, first compound 3 µM): 79.9%
